Source: US20070117770A1, “Human ribosomal DNA (rDNA) and ribosomal RNA (rRNA) nucleic acids and uses thereof” (Cylene Pharmaceuticals, Inc., priority 2005, published 2007)

Assays:
Assay in all cases: Protein kinase inhibition assay
Format in all cases: biochemical
MAPKAP-K3(h) = MAPKAP-K3(h) (Homo sapiens, UniProt Q16644); conditions: read-out: percent residual activity of MAPKAP-K3(h)
Protocol: (§1) Certain compounds were tested for activity in protein kinase inhibition assays. All substrates were dissolved and diluted to working stocks in de-ionized water, apart from histone H1 (10× working stock in 20 mM MOPS pH 7.0), PDKtide (10× working stock in 50 mM Tris pH 7.0) ATF2 (which is typically stored at a 20× working stock in 50 mM Tris pH 7.5, 150 mM NaCl, 0.1 mM EGTA, 0.03% Brij-35, 50% glycerol, 1 mM benzamidine, 0.2 mM PMSF and 0.1% R-mercaptoethanol), KKLNRTLSFAEPG (SEQ ID NO:203) and RRRLSFAEPG (SEQ ID NO:204) (50 mM HEPES pH 7.4) and GGEEEEYFELVKKKK (SEQ ID NO:205) (20 mM MOPS pH 7.0). All kinases were pre-diluted to a 10× working concentration prior to addition into the assay. The composition of the dilution buffer for each kinase is detailed below.
(§2) In a final reaction volume of 25 μl, MAPKAP-K3 (h) (5-10 mU) is incubated with 50 mM Na R-glycerophosphate pH 7.5, 0.1 mM EGTA, 30 μM KKLNRTLSVA (SEQ ID NO:212), 10 mM MgAcetate and [gamma-33P-ATP] (specific activity approx. 500 cpm/pmol, concentration as required). The reaction is initiated by the addition of the MgATP mix. After incubation for 40 minutes at room temperature, the reaction is stopped by the addition of 5 μl of a 3% phosphoric acid solution. […]

Arg(m) = Arg(m) (Mus musculus, UniProt Q4JIM5); conditions: read-out: percent residual activity of Arg(m)
Arg(m), sequence (Q4JIM5 whole entry): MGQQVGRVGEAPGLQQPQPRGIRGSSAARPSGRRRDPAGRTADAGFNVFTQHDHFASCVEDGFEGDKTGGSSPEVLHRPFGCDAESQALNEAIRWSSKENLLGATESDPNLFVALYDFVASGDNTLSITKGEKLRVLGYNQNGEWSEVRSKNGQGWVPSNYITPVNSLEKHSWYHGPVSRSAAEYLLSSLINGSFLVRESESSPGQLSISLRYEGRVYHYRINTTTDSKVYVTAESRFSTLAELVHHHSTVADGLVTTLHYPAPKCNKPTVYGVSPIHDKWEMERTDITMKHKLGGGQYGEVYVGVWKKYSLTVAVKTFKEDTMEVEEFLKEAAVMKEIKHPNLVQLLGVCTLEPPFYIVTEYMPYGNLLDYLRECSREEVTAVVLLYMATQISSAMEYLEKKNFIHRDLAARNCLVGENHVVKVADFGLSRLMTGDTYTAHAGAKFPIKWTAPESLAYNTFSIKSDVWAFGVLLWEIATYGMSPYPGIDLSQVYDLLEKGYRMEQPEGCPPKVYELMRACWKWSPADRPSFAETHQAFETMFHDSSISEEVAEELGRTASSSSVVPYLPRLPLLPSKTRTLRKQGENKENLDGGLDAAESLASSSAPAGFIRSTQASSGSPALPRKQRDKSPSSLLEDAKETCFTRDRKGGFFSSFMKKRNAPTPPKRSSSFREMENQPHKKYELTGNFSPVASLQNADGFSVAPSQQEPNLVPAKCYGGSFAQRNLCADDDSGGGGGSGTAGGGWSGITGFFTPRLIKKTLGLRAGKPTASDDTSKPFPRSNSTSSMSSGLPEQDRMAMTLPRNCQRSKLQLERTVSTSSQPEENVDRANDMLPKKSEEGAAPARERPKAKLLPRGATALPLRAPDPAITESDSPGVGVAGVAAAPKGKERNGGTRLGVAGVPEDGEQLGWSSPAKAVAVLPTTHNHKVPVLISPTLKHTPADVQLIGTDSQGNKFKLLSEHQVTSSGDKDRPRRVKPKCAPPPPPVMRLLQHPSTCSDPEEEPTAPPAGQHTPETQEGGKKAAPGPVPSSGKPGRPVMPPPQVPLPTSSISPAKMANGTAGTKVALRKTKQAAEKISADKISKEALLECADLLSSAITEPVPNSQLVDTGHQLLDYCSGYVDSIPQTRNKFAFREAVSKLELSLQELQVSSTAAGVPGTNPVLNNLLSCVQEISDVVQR
Protocol: as §1
(§3) In a final reaction volume of 25 μl, Arg (m) (5-10 mU) is incubated with 8 mM MOPS pH 7.0, 0.2 mM EDTA, 50 μM EAIYAAPFAKKK (SEQ ID NO:206), 10 mM MgAcetate and [gamma-33P-ATP] (specific activity approx. 500 cpm/pmol, concentration as required). The reaction is initiated by the addition of the MgATP mix. After incubation for 40 minutes at room temperature, the reaction is stopped by the addition of 5 μl of a 3% phosphoric acid solution. 10 μl of the reaction is then spotted onto a P30 filtermat and washed three times for 5 minutes in 75 mM phosphoric acid and once in methanol prior to drying and scintillation counting.

PAK2(h) = PAK2(h) (Homo sapiens, UniProt Q13177); conditions: read-out: percent residual activity of PAK2(h)
PAK2(h), sequence (Q13177 whole entry): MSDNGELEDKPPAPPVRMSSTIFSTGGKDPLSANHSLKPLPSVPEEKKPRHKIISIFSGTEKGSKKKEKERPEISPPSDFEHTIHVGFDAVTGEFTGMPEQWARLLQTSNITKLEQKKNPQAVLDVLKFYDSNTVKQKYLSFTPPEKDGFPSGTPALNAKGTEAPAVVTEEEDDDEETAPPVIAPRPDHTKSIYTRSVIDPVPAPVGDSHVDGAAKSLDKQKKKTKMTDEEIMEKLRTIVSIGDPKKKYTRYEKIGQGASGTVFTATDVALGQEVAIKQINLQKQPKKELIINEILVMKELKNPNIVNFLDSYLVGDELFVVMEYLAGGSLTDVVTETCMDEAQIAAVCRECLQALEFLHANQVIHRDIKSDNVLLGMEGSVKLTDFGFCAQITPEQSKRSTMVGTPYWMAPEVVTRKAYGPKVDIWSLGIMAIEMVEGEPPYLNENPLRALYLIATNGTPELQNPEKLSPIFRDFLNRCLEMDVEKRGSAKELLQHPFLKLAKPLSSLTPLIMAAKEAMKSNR
Protocol: as §1
as §3, with “μl, PAK2 (h)” for “μl, Arg (m)”, “EDTA, 30” for “EDTA, 50”, “μM […]” for “μM EAIYAAPFAKKK”, “ID NO:222),” for “ID NO:206),”

CSK(h) = CSK(h) (Homo sapiens, UniProt P41240); conditions: read-out: percent residual activity of CSK(h)
Protocol: as §1
as §2, with “CSK” for “MAPKAP-K3”, “Tris” for “Na R-glycerophosphate”, “0.1 mM Na3VO4, 0.1% R-mercaptoethanol, 0.1 mg/ml poly(Glu, Tyr) 4:1, 10 mM MnCl2,” for “30 μM KKLNRTLSVA (SEQ ID NO:212),”

PAK4(h) = PAK4(h) (Homo sapiens, UniProt O96013); conditions: read-out: percent residual activity of PAK4(h)
PAK4(h), sequence (O96013 whole entry): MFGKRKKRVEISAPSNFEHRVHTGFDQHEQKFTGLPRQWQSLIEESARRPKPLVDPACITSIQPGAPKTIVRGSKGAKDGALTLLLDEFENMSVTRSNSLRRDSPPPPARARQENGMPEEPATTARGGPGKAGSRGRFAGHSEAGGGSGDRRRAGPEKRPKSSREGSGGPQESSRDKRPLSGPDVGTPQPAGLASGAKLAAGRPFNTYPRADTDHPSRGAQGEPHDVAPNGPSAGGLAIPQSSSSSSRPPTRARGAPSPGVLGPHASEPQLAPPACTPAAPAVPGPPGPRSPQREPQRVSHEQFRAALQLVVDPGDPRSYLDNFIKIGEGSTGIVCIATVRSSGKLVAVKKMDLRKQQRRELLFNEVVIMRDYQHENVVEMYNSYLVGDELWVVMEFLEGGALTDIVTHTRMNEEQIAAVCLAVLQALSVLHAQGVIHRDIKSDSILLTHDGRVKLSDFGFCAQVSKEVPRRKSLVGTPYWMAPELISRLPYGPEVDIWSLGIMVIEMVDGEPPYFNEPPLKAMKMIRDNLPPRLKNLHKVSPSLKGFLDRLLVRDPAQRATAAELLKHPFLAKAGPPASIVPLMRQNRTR
Protocol: as §1
as §3, with “PAK4 (h)” for “Arg (m)”, “0.8 mg/ml myelin basic protein,” for “50 μM EAIYAAPFAKKK (SEQ ID NO:206),”

IKKα(h) = IKKα(h) (Homo sapiens, UniProt O15111); conditions: read-out: percent residual activity of IKKα(h)
IKKα(h), sequence (O15111 whole entry): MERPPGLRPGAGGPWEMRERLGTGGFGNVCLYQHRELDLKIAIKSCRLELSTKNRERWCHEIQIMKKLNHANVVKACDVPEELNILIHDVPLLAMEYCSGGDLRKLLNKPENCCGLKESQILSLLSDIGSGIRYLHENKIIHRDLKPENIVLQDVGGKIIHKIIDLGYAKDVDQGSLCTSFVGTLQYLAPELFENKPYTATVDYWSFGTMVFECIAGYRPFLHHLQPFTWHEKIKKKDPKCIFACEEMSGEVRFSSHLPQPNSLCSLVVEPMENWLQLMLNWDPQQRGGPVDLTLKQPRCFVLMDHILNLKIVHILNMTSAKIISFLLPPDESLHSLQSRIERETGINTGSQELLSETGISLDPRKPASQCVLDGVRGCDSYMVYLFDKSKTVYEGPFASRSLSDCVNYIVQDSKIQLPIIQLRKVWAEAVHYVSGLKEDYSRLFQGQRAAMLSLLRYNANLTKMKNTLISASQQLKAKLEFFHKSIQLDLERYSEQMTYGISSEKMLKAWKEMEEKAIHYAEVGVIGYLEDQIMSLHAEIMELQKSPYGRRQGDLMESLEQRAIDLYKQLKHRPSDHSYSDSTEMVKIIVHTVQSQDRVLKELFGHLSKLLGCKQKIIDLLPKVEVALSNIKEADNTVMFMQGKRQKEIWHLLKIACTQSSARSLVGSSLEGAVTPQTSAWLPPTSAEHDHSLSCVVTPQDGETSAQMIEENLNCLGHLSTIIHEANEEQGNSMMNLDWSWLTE
Protocol: as §1
as §3, with “μl, IKKa (h)” for “μl, Arg (m)”, “EDTA, 200” for “EDTA, 50”, “μM peptide,” for “μM EAIYAAPFAKKK (SEQ ID NO:206),”

MAPKAP-K3(h), sequence (Q16644 whole entry): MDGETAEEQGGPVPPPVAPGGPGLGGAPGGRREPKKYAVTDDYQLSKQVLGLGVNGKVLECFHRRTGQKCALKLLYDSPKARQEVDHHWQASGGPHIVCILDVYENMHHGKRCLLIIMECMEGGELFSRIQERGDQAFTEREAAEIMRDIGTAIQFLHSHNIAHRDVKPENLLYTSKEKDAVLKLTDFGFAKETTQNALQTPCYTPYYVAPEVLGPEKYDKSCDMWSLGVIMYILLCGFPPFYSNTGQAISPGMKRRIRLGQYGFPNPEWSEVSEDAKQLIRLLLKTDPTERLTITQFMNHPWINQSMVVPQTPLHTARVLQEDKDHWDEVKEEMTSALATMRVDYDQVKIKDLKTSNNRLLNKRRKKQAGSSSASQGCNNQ

Row | remaining activity at 2.5 µM (MAPKAP-K3(h)) | remaining activity at 2.5 µM (Arg(m)) | remaining activity at 2.5 µM (PAK2(h)) | remaining activity at 2.5 µM (CSK(h)) | remaining activity at 2.5 µM (PAK4(h)) | remaining activity at 2.5 µM (IKKα(h)) | SMILES
1 | 94% | 43% | 73% | 116% | 99% | 68% | CN1CCCC1CCNC(=O)c1cn2c3c(c(N4CCC(c5cnccn5)C4)c(F)cc3c1=O)Oc1cc3ccccc3cc1-2 (stereo not drawn) [Compound A-1]
2 | 109% | 102% | 95% | 92% | 96% | 118% | CC(=O)N1CCN(c2ccc3c(=O)c(C(=O)NCCN4CCCC4)c4n(C)c5ccccc5n4c3n2)CC1 [Compound B-1]
